Entries after “also recorded” stand apart in the source; their conditions may differ.
Experiments:
HSP70 = conditions: cited from earlier work
[1] = tested on: vesicular stomatitis virus protein; conditions: Rossi et al., J. Biol. Chem. 271, 32192 (1996); cited from earlier work
HL-60 cells [2] = assay: MTT growth inhibition of HL-60; type: cell-based, human; conditions: for inhibition activity of the growth of cancer cells (in words): Example 5; for activity at 10 µM / activity at 20 µM / activity at 40 µM: read-out: degree of cell growth (ratio of absorbance at 590 nm of sample-added section to control)
Protocol: (§1) (2) To each of the wells of a 96-well microtiter plate was added 8, 40, 200 or 1000 μM aqueous solution of GM or 10 μl of water as a control. HL-60 (ATCC CCL-240) was suspended in an RPMI 1640 medium containing 10% of fetal calf serum to make the concentration 5×10^4 cells/ml and each 90 μl thereof was placed in each well of the above-mentioned microtiter plate and incubated at 37° C. for 48 hours in the presence of 5% carbon dioxide. Incubation was conducted for four hours more after addition of 10 μl of a solution (5 mg/ml) of 3-(4,5-dimethylthiazol-2-yl)-2,5-diphenyltetrzolium bromide (MTT; manufactured by Sigma) in a phosphate-buffered saline solution and the state of growth of the cells was observed under a microscope. Further, 100 μl of 2-propanol containing 0.04N hydrochloric acid was added followed by stirring and an absorbance at 590 nm was measured.
(3) To each well of the 96-well microtiter plate was added 100, 200 or 400 μM aqueous solution of GM or CM or 10 μl of water as a control and the inhibition activity of growth of HL-60 was measured by the same method as mentioned in Example 5-(2). The degree of cell growth was, however, expressed in terms of the ratio (%) of the absorbance at 590 nm of the sample-added section to that of the water-added section (the control).
(§2) (5) To each well of the 96-well microtiter plate was added 4.12, 12.3, 37.0, 111, 333 or 1000 μM aqueous solution of GD or 10 μl of water as a control. HL-60 (ATCC CCL-240) was suspended in an RPMI 1640 medium containing 10% of fetal calf serum to make the concentration 5×10^4 cells/ml and each 90 μl thereof was placed in each well of the above-mentioned microtiter plate followed by incubating at 37° C. for 48 hours in the presence of 5% carbon dioxide gas. The incubation was conducted for four hours more after addition of 10 μl of 5 mg/ml solution of 3-(4,5-dimethylthiazol-2-yl)-2,5-diphenyltetrazolium bromide (MTT; manufactured by Sigma) in a phosphate-buffered saline solution and the state of growth of the cells was observed under a microscope. In the meanwhile, 100 μl of 2-propanol containing 0.04N HCl was added followed by well stirring and the absorbance at 590 nm was measured.
(6) Cyclopentenone and L-cysteine hydrochloride were dissolved in a phosphate buffered saline solution (pH 7.2) to make their concentrations 55 mM and 80 mM, respectively and made to react at 37° C. for 15 minutes at pH 7.2. Apart of the reaction solution was analyzed by a reversed phase HPLC using a column of TSK gel ODS-80Ts (4.6 mm×250 mm; manufactured by Tosoh)at the flow rate of 1 ml/minute using 0.1% aqueous solution of trifluoroacetic acid as a mobile phase whereupon no cyclopentenone was detected. This reaction solution was a solution containing 55 mM of CD.
Degree of cell growth was, however, expressed in terms of the ratio (%) of the absorbance at 590 nm of the section to which the sample was added to that of the control where water was added.

HL-60 cells [3] = assay: Apoptosis in HL-60 cells (apoptic bodies, DNA fragmentation); type: cell-based, human; conditions: at each of the cell-growth-inhibiting concentrations
Protocol: (1) Each 0.5 ml of 0.2 mM CM, 0.8 mM CM or 1.6 mM CM was added to 4.5 ml of RPMI 1640 medium containing 10% of fetal calf serum and 2.5×10^5HL-60 cells (promyelocytic leukemia cell) (ATCC CCL-240) and incubated at 37° C. for 24 hours or 48 hours in the presence of 5% carbon dioxide gas and the numbers of viable cells were measured.
as §1
(4) HL-60 cells (ATCC CCL240) which were incubated at 37° C. in an RPMI 1640 medium (manufactured by Nissui) containing 10% of fetal calf serum (manufactured by Gibco) treated at 56° C. for 30 minutes were suspended in the above medium to make the concentration 2.5×10^5cells/4.5 ml. To this suspension was added 0.5 ml of 100 μM aqueous solution of GM (final concentration: 10 μM) followed by incubating at 37° C. in the presence of 5% carbon dioxide gas for 24 hours, 48 hours and 72 hours.
as §2

mouse leukemia P-388 = assay: Mouse leukemia P-388 survival (macrobiotic effect) in DBA/2 mice; type: in vivo; conditions: 10 mg/kg/day i.p., five days
Protocol: GM was diluted with a physiological saline solution to a predetermined concentration and subjected to the following tests.
(2) Mouse leukemia P-388 (1.1×10^6 cells/mouse) was intraperitoneally injected to female DBA/2 mice (body weight: about 20 g) of seven weeks age. After that, GM, CM, GD or CD (10 mg/kg/day) was intraperitoneally injected for consecutive five clays. In the meanwhile, a physiological saline solution was intraperitoneally injected to the control group by the same manner. In the two group each consisting of eight mice, survived numbers, average survived days and macrobiotic rate of the mice were calculated.

Sarcoma-180 = assay: Sarcoma-180/ICR mice macrobiotic effect; type: in vivo
IMC = assay: IMC/CDF1 mice macrobiotic effect; type: in vivo
EAC = assay: EAC/DDY mice macrobiotic effect; type: in vivo
[4] = tested on: Bacillus subtilis IFO 3021; assay: Antibacterial activity, viable cell numbers; type: cell-based; conditions: compared with GM
Protocol: Bacillus subtilis IFO 3021 was incubated (by mans of a seed culture) overnight in a sensitive bouillon medium (manufactured by Nissui). Absorbance at 600 nm was measured and viable cell numbers were calculated from the previously-prepared calibration curve showing the relation between the viable cell numbers and absorbance at 600 nm. The seed-cultured liquid was diluted with a fresh sensitive bouillon medium to make the concentration 1×10^6 cells/ml and each 180 μl thereof was placed in each well of the 96-well microtiter plate. Each 20 μl of aqueous solution of GM (4 mg/ml or 2 mg/ml) or water was added to each well followed by allowing to a stationary culture at 37° C. for one night (main incubation) In the meanwhile, a part of the seed culture liquid was diluted with sterilized water, spread onto a sensitive bouillon agar plate medium and incubated at 37° C. for one night and the colonies were counted to measure the precise viable cell numbers.
The cultured liquid in each of the wells was diluted with sterilized water, spread onto a sensitive bouillon agar plate medium and incubated at 37° C. for one night and the colonies were counter to measure the viable cell numbers.

HSP70 and HSP90 = conditions: Amici et al., J. Virology 68, 6890 (1994); cited from earlier work
[5] = tested on: Sendai virus protein synthesis; conditions: Amici et al., J. Virology 68, 6890 (1994); cited from earlier work

For `O=C1C=CCC1` [2-cyclopenten-1-one], the “synthesis of HSP70” value (HSP70; Rossi et al., J. Biol. Chem. 271, 32192 (1996)) is given as “induces the synthesis of HSP70”, the “concentration required for inducing the HSP70” value (HSP70) is given as “several hundred” and the “synthesis of vesicular stomatitis virus protein” value [1] is given as “inhibits the synthesis of vesicular stomatitis virus protein”.

In the case of `N[C@@H](CSC1CC(=O)C(O)C1O)C(=O)O` (some centres unmarked) [CD], the “inhibition activity of the growth of cancer cells (in words)” value (HL-60 cells [2]) is reported as “inhibition activity of the growth of cancer cells”, the activity at 10 µM (HL-60 cells [2]; Homo sapiens, HL-60, 48 hours) is reported as 89% and the activity at 20 µM (HL-60 cells [2]; Homo sapiens, HL-60, 48 hours) is reported as 56.2%. The activity at 40 µM (HL-60 cells [2]; Homo sapiens, HL-60, 48 hours) was 5.3%, the “apoptic bodies in the cells” value (HL-60 cells [3]) was “Apoptic bodies were produced in the cells” and the “macrobiotic effect (average survived days)” value (mouse leukemia P-388) was “significant macrobiotic effect”. For the same compound, the macrobiotic effect (Sarcoma-180) was “same macrobiotic effect”, the macrobiotic effect (IMC) was “same macrobiotic effect” and the macrobiotic effect (EAC) was “same macrobiotic effect”. The “antibacterial activity (in words)” value [4] was “same results”.

For `CCCCC[C@H](O)/C=C/[C@H]1C=CC(=O)[C@@H]1CCCCCCC(=O)O` [prostaglandin Al], the “synthesis of HSP70 and HSP90” value (HSP70 and HSP90) is given as “synthesis of HSP70 and HS?90 is induced” and the “synthesis of virus protein” value [5] is given as “synthesis of virus protein is inhibited”.

In the case of `N[C@@H](CCC(=O)N[C@@H](CSC1CC(=O)C(O)C1O)C(=O)NCC(=O)O)C(=O)O` (some centres unmarked) [GD, 2,3-dihydroxy-4-glutathion-S-yl-cyclopentanone], the “inhibition activity of the growth of cancer cells (in words)” value (HL-60 cells [2]) is reported as “inhibition activity of the growth of cancer cells”, the activity at 10 µM (HL-60 cells [2]; Homo sapiens, HL-60, 48 hours) is reported as 47.2% and the activity at 20 µM (HL-60 cells [2]; Homo sapiens, HL-60, 48 hours) is reported as 5.8%. The activity at 40 µM (HL-60 cells [2]; Homo sapiens, HL-60, 48 hours) was 2.1%, the IC100 (HL-60 cells [2]; Homo sapiens, HL-60, 48 hours, MTT, final concentration, read-out: concentration at which growth of HL-60 cells was completely inhibited) was 3.7 µM and the “apoptic bodies in the cells” value (HL-60 cells [3]) was “apoptic bodies were detected; also recorded: Apoptic bodies were produced in the cells”. For the same compound, the “macrobiotic effect (average survived days)” value (mouse leukemia P-388) was “significant macrobiotic effect”, the macrobiotic effect (Sarcoma-180) was “same macrobiotic effect” and the macrobiotic effect (IMC) was “same macrobiotic effect”. For the same compound, the macrobiotic effect (EAC) was “same macrobiotic effect” and the “antibacterial activity (in words)” value [4] was “same results”.

Source: patent US6177592A, “Compounds” (priority 1997, dated 2001)
